# Measured values reported in patent US20260234144A1 (TAY THERAPEUTICS LIMITED, priority 2023, published 2026).
# System: R223X stop codon in the mutated luciferase gene, ADXC8 luciferase reporter cell line
# Assay: cells
# Assay type: cell-based
# Settings: ADXC8 cells, 24 hours; for Fold Over Control: maximum fold response relative to 200 μM G418; for pC100%: negative logarithm of the concentration giving the same response as 200 μM G418; for Emax / EC (100% of 200 uM G418 response): 24 h; for Emax: read-out: Fold Over Control, maximum fold response relative to 200 μM G418; for EC (100% of 200 uM G418 response): read-out: pC100%, negative logarithm of the concentration giving the same response as 200 μM G418
Compound,Fold Over Control,pC100%,Emax,EC (100% of 200 uM G418 response)
"Cc1cc(C)c2c(N)nc(NC34CNCC3C4)nc2n1 (single isomer, unassigned) [Example 260, N^2-(3-azabicyclo[3.1.0]hexan-1-yl)-5,7-dimethylpyrido[2,3-d]pyrimidine-2,4-diamine]",## (Fold over Ctrl > 1 ≤ 30),+++ (pC100% > 6.0 ≤ 7.0),,
Cc1cc(C)c2c(N)nc(NC3CCN(Cc4ccccc4C(F)(F)F)CC3)nc2n1 [Example 490],,,100 to 3000%,10 to 100 µM
CNc1nc(N[C@H]2CN(C(C)C)C[C@@H]2O)nc2nc(C)cc(C)c12 [Example 625],,,100 to 3000%,1 to 10 µM
CN1CCC(Nc2nc(N)c3ccc(-c4ccc(F)cc4)nc3n2)CC1 [Example 57],,,100 to 3000%,1 to 10 µM
CN1CCC(Nc2nc(N)c3ccc(C4CCCC4)nc3n2)CC1 [Example 310],,,,1 to 10 µM
Cc1cc(C)c2c(N)nc(NC3CCN(Cc4ccc(O)cc4)CC3)nc2n1 [Example 460],,,100 to 3000%,1 to 10 µM
Cc1cc(C)c2c(N)nc(NC3CCN(Cc4ccc(C(N)=O)cc4)CC3)nc2n1 [Example 476],,,100 to 3000%,10 to 100 µM
Cc1cc(C)c2c(N)nc(NCC3CCCN(C)C3)nc2n1 (stereo not shown) [Example 174],,,100 to 3000%,10 to 100 µM
"Nc1nc(NC23CCN(CC2)CC3)nc2nc(-c3ccccc3)c3c(c12)CCC3 [Example 127, 6-phenyl-N^3-(quinuclidin-4-yl)-8,9-dihydro-7H-cyclopenta[4,5]pyrido[2,3-d]pyrimidine-1,3-diamine]",,,100 to 3000%,0.1 to 1 µM
"CNc1nc(N[C@H]2CN(C(C)C)C[C@H]2F)nc2nc(C)cc(C)c12 [Example 523, N^2-((3S,4R)-4-fluoro-1-isopropylpyrrolidin-3-yl)-N^4,5,7-trimethylpyrido[2,3-d]pyrimidine-2,4-diamine]",,,100 to 3000%,1 to 10 µM
Cc1cc(C)c2c(N)nc(NCCC3CCCN(C)C3)nc2n1 (stereo not shown) [Example 159],,,,1 to 10 µM
CN1CCC(Nc2nc(N)c3ccc(-c4cccc(C(=O)N(C)C)c4)nc3n2)CC1 [Example 86],,,0 to 100%,> 100 µM
Cc1cc(C)c2c(N)nc(NCCCN3CC4(CCCO4)C3)nc2n1 [Example 192],,,0 to 100%,> 31.6 µM
Cc1cc(C)c2c(N)nc(NC3CCN(Cc4ccc(CO)cc4)CC3)nc2n1 [Example 481],,,100 to 3000%,1 to 10 µM
"CNc1nc(NC2CNCC2C#N)nc2nc(C)cc(C)c12 (single isomer, unassigned) [Example 450]",## (Fold over Ctrl > 1 ≤ 30),++ (pC100% > 5.0 ≤ 6.0),,
CNc1nc(NCC23CCC[C@H]2N(C)CC3)nc2nc(C)cc(C)c12 (stereo partly shown) [Example 405],,,100 to 3000%,1 to 10 µM
CN1CCC(Nc2nc(N)c3ccc(-c4ccc(CN)cc4)nc3n2)CC1 [Example 63],,,100 to 3000%,1 to 10 µM
"CNc1c(C)c(NCCCN(C)C)nc2nc(C)cc(C)c12 [Example 522, N^2-(3-(dimethylamino)propyl)-N^4,3,5,7-tetramethyl-1,8-naphthyridine-2,4-diamine]",,,0 to 100%,> 31.6 µM
Cc1cc(C)c2c(N)nc(NC3CC4(CNC4)C3)nc2n1 [Example 202],,,100 to 3000%,10 to 100 µM
CC(=O)Nc1cccc(CN2CCC(Nc3nc(N)c4c(C)cc(C)nc4n3)CC2)c1 [Example 480],,,100 to 3000%,10 to 100 µM
CCCNc1nc(N[C@@H]2CCN(C)C2)nc2nc(C)cc(C)c12 [Example 390],,,100 to 3000%,1 to 10 µM
CN1CCC(Nc2nc(N)c3ccc(-c4ccccc4C(=O)O)nc3n2)CC1 [Example 87],,,0 to 100%,> 100 µM
Cc1cc(C)c2c(N)nc(N[C@@H]3CCN(Cc4ccc(C#N)cc4)C[C@@H]3F)nc2n1 [Example 575],,,100 to 3000%,10 to 100 µM
CN1CCC(Nc2nc(N)c3cc(-c4cn(C)cn4)cnc3n2)CC1 [Example 644],,,0 to 100%,> 100 µM
[2H]C([2H])([2H])Nc1nc(N[C@H]2CNC[C@@H]2O)nc2nc3c(c(C)c12)CCC3 [Example 563],,,,0.1 to 1 µM
CNc1nc(N[C@H]2CCCN(C)C2)nc2nc(C)cc(C)c12 [Example 384],,,100 to 3000%,1 to 10 µM
[2H]C([2H])([2H])Nc1nc(NC2CCNCC2)nc2nc(C)cc(C)c12 [Example 589],,,,1 to 10 µM

Compound,Fold Over Control,pC100%,Emax,EC (100% of 200 uM G418 response)
Cc1ccc(O)c(CN2CCC(Nc3nc(N)c4c(C)cc(C)nc4n3)CC2)c1 [Example 548],,,100 to 3000%,0.1 to 1 µM
Cc1cc(C)c2c(N)nc(NC3CCN(Cc4cccc5cn[nH]c45)CC3)nc2n1 [Example 659],,,100 to 3000%,0.1 to 1 µM
"CC#Cc1ccnc2nc(NC3CCN(C)CC3)nc(N)c12 [Example 251, N^2-(1-methylpiperidin-4-yl)-5-(prop-1-yn-1-yl)pyrido[2,3-d]pyrimidine-2,4-diamine]",,,100 to 3000%,10 to 100 µM
"CNc1nc(N[C@@H]2CCNC2)nc2nc3c(c(C)c12)CCC3 [Example 231, (R)—N^4,5-dimethyl-N^2-(pyrrolidin-3-yl)-7,8-dihydro-6H-cyclopenta[5,6]pyrido[2,3-d]pyrimidine-2,4-diamine]",,,100 to 3000%,0.1 to 1 µM
Cc1cc(C)c2c(N)nc(NCCN3CCC4(CCOCC4)C3)nc2n1 [Example 165],,,0 to 100%,> 31.6 µM
"Cc1nc2nc(NC3CCN(C)CC3)nc(N)c2cc1Br [Example 21, 6-bromo-7-methyl-N-(1-methylpiperidin-4-yl)pyrido[2,3-d]pyrimidine-2,4-diamine]",,,100 to 3000%,1 to 10 µM
CNc1cc(N[C@H]2CNC[C@H]2F)nc2nc3c(c(C)c12)CCC3 [Example 633],,,,1 to 10 µM
"C=C(C)c1ccc2c(N)nc(NC3CCN(C)CC3)nc2n1 [Example 238, N^2-(1-methylpiperidin-4-yl)-7-(prop-1-en-2-yl) pyrido[2,3-d]pyrimidine-2,4-diamine]",,,0 to 100%,> 31.6 µM
Cc1cc(C)c2c(N)nc(NC3CCN(Cc4cc(F)cc(F)c4O)CC3)nc2n1 [Example 569],,,100 to 3000%,1 to 10 µM
"Cc1cc(C)c2c(N)nc(NC3CCN(Cc4ccc(C#N)cc4C(F)F)CC3)nc2n1 [Example 508, 4-((4-((4-amino-5,7-dimethylpyrido[2,3-d]pyrimidin-2-yl)amino)piperidin-1-yl)methyl)-3-(difluoromethyl)benzonitrile]",,,100 to 3000%,1 to 10 µM
CNc1nc(N[C@H]2CN(C)C[C@@H]2O)nc2nc(C)c(Br)c(C)c12 [Example 615],,,,1 to 10 µM
Cc1cc(C)c2c(N)nc(NC3CCN(Cc4cccc(S(C)(=O)=O)c4)CC3)nc2n1 [Example 496],,,100 to 3000%,10 to 100 µM
Cc1cc(C)c2c(N)nc(NC3CC4CNCC4C3)nc2n1 (stereo not shown) [Example 205],,,100 to 3000%,1 to 10 µM
Cc1cc(C)c2c(N)nc(N[C@H]3CCNC[C@H]3F)nc2n1 [Example 587],,,100 to 3000%,1 to 10 µM
"CNc1cc(C)c2c(NC)nc(N[C@@H]3CCN(C)C3)nc2n1 [Example 524, (R)—N^4,N^7,5-trimethyl-N^2-(1-methylpyrrolidin-3-yl)pyrido[2,3-d]pyrimidine-2,4,7-triamine]",,,100 to 3000%,1 to 10 µM
Cc1cc(C)c2c(N)nc(NC3CCN(Cc4c(C)cccc4O)CC3)nc2n1 [Example 538],,,100 to 3000%,0.1 to 1 µM
Cc1cc(-c2ccccc2)nc2nc(N[C@@H]3CCNC3)nc(N)c12 [Example 301],,,,1 to 10 µM
Cc1cc(C)c2c(N)nc(NC3CCN(CC(F)(F)F)CC3)nc2n1 [Example 178],,,0 to 100%,> 100 µM
"COc1cnc2nc(NC3CCN(C)CC3)nc(N)c2c1 [Example 241, 6-methoxy-N^2-(1-methylpiperidin-4-yl)pyrido[2,3-d]pyrimidine-2,4-diamine]",,,0 to 100%,> 31.6 µM
"CNc1nc(N[C@H]2CN(C)C[C@@H]2OC(C)=O)nc2nc3c(c(C)c12)CCC3 [Example 683, (3S,4S)-1-methyl-4-((5-methyl-4-(methylamino)-7,8-dihydro-6H-cyclopenta[5,6]pyrido[2,3-d]pyrimidin-2-yl)amino)pyrrolidin-3-yl acetate]",,,100 to 3000%,0.1 to 1 µM
"COC(=O)c1ccc2c(N)nc(NC3CCN(C)CC3)nc2n1 [Example 235, methyl 4-amino-2-((1-methylpiperidin-4-yl)amino)pyrido[2,3-d]pyrimidine-7-carboxylate]",,,0 to 100%,> 100 µM
Cc1c2c(nc3nc(NC4CCN(Cc5ccccc5C(=O)O)CC4)nc(N)c13)CCC2 [Example 675],,,0 to 100%,> 31.6 µM
CCNc1nc(N[C@H]2CNC[C@@H]2O)nc2nc(C)cc(C)c12 [Example 392],,,,1 to 10 µM
Cc1nc2nc(NC3CCN(Cc4ccc(C#N)cc4)CC3)nc(N)c2c2c1CCC2 [Example 554],,,100 to 3000%,0.1 to 1 µM
C=C(C)c1cnc2nc(NC3CCN(C)CC3)nc(N)c2c1 [Example 397],,,100 to 3000%,1 to 10 µM
"CN1CCC(Nc2nc(N)c3cc(Br)cnc3n2)CC1 [Example 20, 6-bromo-N^2-(1-methylpiperidin-4-yl)pyrido[2,3-d]pyrimidine-2,4-diamine]",,,100 to 3000%,10 to 100 µM
CN(C)Cc1ccccc1-c1ccc2c(N)nc(NC3CCN(C)CC3)nc2n1 [Example 59],,,0 to 100%,> 100 µM
